Several values for one entry are separate records, joined by “and”; a condition that tells them apart may be missing. Equal entries are not always repeated. Where two headings read alike, the source gives them in different places. Marks after values point to notes of the source that are not given here.

We go through 17 molecules from paper PMC12113998, “Exploring Multivalent Architectures for Binding and Stabilization of N-Acetylgalactosamine 6-Sulfatase” (Molecules, 2025).

Data set [1] can be described thus: 1H-NMR stability study of the acetal in D2O at pH* 4.3, 37 °C. Type of data set: physicochemical. Conditions: after 19 h. The protocol:
The presence of pH-sensitive acetal groups in β-D-glucose-derived dendrimers led us to question whether these compounds would remain stable under the biological conditions of the screening assay. To assess their stability under the experimental conditions, we synthesized 2-(nonyloxy)tetrahydro-2H-pyran acetal following the literature procedure as a control and conducted an NMR stability study. The NMR sample was prepared in D2O at pH* 4.3, where pH* refers to the pH measured in a D2O solution using an H2O-calibrated pH meter. […] The hydrolysis of the 2-(nonyloxy)tetrahydro-2H-pyran acetal yielded nonan-1-ol and 5-hydroxypentanal. The compound stability at pH* 4.3, assessed by ¹H-NMR experiments, is reported in the Supporting Information.

In data set [2] the target is T1, N-acetylgalactosamine-6-sulfatase (GALNS) (Homo sapiens, UniProt P34059).
T1 construct: Isolated leukocytes were disrupted by sonication; from tissue; host or cells: human leukocytes from healthy donors (sonicated homogenate)
T1 sequence (P34059 27-522): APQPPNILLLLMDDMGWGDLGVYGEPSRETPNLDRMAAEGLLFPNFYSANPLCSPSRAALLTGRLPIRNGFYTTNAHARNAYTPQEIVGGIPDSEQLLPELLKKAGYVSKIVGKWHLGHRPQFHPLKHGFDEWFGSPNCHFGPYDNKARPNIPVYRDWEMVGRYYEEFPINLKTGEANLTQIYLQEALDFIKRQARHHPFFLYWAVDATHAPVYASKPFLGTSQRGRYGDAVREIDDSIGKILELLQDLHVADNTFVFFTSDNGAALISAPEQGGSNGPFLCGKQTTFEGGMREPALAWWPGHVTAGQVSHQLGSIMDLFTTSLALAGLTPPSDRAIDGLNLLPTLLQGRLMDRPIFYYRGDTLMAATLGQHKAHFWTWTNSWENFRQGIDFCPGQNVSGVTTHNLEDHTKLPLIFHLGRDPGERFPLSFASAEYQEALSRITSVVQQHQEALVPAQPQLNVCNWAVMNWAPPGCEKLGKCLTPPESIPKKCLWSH
Nature of the data set: GALNS inhibition in leukocyte homogenate from healthy donors (4-methylumbelliferyl-β-galactoside-6-sulfate substrate, fluorescence). Conditions: for inhibition at 1000 µM: pH 4.3, 1 mM inhibitor. It is filed as biochemical. The protocol: A preliminary biological screening of the newly synthesized multivalent compounds at 1 mM inhibitor concentration was performed against GALNS in leukocytes isolated from healthy donors. Enzymatic assays were performed in triplicate by incubating leukocyte homogenate, compound, and substrate (4-methylumbelliferyl-β-galactoside-6-sulfate.Na) in Na-acetate/acetic acid buffer (pH 4.3) at 37 °C for 17 h, followed by the addition of β-galactosidase from Aspergillus oryzae and further incubation to release 4-methylumbelliferone. The fluorescence was measured, and the inhibition percentages were calculated relative to the control. The results are summarized in Table 1, Table 2, Table 3 and Table 4, along with new inhibition data toward GALNS of multivalent inhibitors whose synthesis was reported previously by our group (23, 26, 30, 51, 52–54). For compounds showing poor to negligible inhibitory activity, only the GALNS inhibition percentage at 1 mM was reported.
Enzymatic assays towards human GALNS in leukocytes isolated from healthy donors.
All experiments on biological materials were performed in accordance with the ethical standards of the institutional research committee and with the 1964 Helsinki Declaration and its later amendments. In keeping with ethical guidelines, all blood and cell samples were obtained for storage and analysed only after written informed consent of the patients (and/or their family members) was obtained, using a form approved by the local Ethics Committee (Assigned code: Lysolate “Late -onset Lysosomal Storage Disorders (LSDs) in the differential diagnosis of neurodegenerative diseases: development of new diagnostic procedures and focus on potential pharmacological chaperones (PCs).” Project ID code: 16774_bio, 5 May 2020, Comitato Etico Regionale per la Sperimentazione Clinica della Regione Toscana, Area Vasta Centro, Florence, Italy). Control and patient samples were anonymized and used only for research purposes.
A preliminary biological screening of compounds at 1 mM was performed towards GALNS in leukocytes isolated from healthy donors (controls). Isolated leukocytes were disrupted by sonication, and a micro BCA protein assay kit (Sigma–Aldrich) was used to determine the total protein amount for the enzymatic assay, according to the manufacturer instructions. Enzyme activity was measured by setting the reaction in 0.2 mL tubes and performing the experiments in triplicates as follows. Compound solution (3 µL), 4.29 μg/μL leukocyte homogenate 1:5 (7 μL) and 20 µL of 4-methylumbelliferyl-β-galactoside-6-sulfate.Na substrate solution (6.66mM) in Na-Acetate/acetic acid buffer (0.1 M/0.1 M, pH 4.3) containing 0.1 M NaCl, 0.02% (w/v) NaN3 and 5 mM Pb-acetate were incubated for 17 h at 37 °C. After step one, the tubes were placed on an ice cooler and the reaction was stopped by addition of 5 µL of Na-phosphate buffer (0.9 M, pH 4.3) containing 0.02 % (w/v) of NaN3 and by efficient mixing with vortex. Then, 10 µL of β-galactosidase from Aspergillus oryzae (β-Gal-A-10U) were added to each sample and samples were incubated for 2 h at 37°C. At the end of this period the tubes were placed on an ice cooler and the samples were transferred in a cooled flat –bottomed 96 well plate and the reaction was immediately stopped with 2 00 µL of NaHCO3/Na2CO3 buffer (0.5 M/0.5 M pH 10.7) containing 0.025% (w/v) of Triton X -100. Fluorescence was measured in a SpectraMax M2 microplate reader (Molecular-Devices) using a 365 nm excitation wavelength and a 435 nm emission wavelength. Percentage of GALNS inhibition was given with respect to the control (without compound).
Experiments were performed in triplicate, and the mean ± S. D. was calculated.
Figure S52. GALNS activity in the absence Figure S53. GALNS activity in the absence (Ctrl) and presence of scaffold 12 at a 1 mM (Ctrl) and presence of the new multivalent […]
The corresponding calculated inhibition of the main text) at a 1 mM concentration in […]

In data set [3] the target is T1, N-acetylgalactosamine-6-sulfatase (GALNS). More on the design: method as in doi:10.1039/C6RA15806D. Particulars: cited from earlier work.
Another data set has as its system GALNS. Particulars: cited from earlier work.
In the next data set the test system is rhGALNS. More on the design: method as in PMID 31905715. Particulars: preliminary studies; cited from earlier work.
Where [4] appears, read: calculated considering 35 as the monovalent reference compound.
Setting [5] is: human leukocyte extracts, pH 4.3, 37 °C, 17 h.

Consider `CCCCCCCCCOC1CCCCO1` (centres unmarked) [2-(nonyloxy)tetrahydro-2H-pyran acetal, 2-(nonyloxy)tetrahydro-2H-pyran], for which the “stability at pH* 4.3 by 1H-NMR” value in data set [1] is reported as “remained stable”.
Broadly, the IC50 is the concentration at which inhibition is half-maximal. `O=C(NC(COCc1cn(CCCCCCN2C[C@H](O)[C@H](O)[C@H]2CO)nn1)(COCc1cn(CCCCCCN2C[C@H](O)[C@H](O)[C@H]2CO)nn1)COCc1cn(CCCCCCN2C[C@H](O)[C@H](O)[C@H]2CO)nn1)c1cc(C(=O)NC(COCc2cn(CCCCCCN3C[C@H](O)[C@H](O)[C@H]3CO)nn2)(COCc2cn(CCCCCCN3C[C@H](O)[C@H](O)[C@H]3CO)nn2)COCc2cn(CCCCCCN3C[C@H](O)[C@H](O)[C@H]3CO)nn2)cc(C(=O)NC(COCc2cn(CCCCCCN3C[C@H](O)[C@H](O)[C@H]3CO)nn2)(COCc2cn(CCCCCCN3C[C@H](O)[C@H](O)[C@H]3CO)nn2)COCc2cn(CCCCCCN3C[C@H](O)[C@H](O)[C@H]3CO)nn2)c1` [Compound 2]: in data set [2] (setting [4]), the “rp (relative potency)” value is listed as 59 and the “rp/n (multivalent effect)” value was 6.5 ^[d]. For the same molecule, the “rp (relative potency)” value in data set [2] (calculated with respect to the scaffold 38) was 0.8. Moreover, in data set [3] (1 mM inhibitor, human leukocyte extracts), the “% Inhibition (1 mM)” value is 85 ^[a] %. Moreover, in data set [3] (human leukocyte extracts), the IC50 was 85 ± 8 µM. The rp/n in data set [3] (positive MVE as previously reported) was 6.5 and 6.5–9.2.
In the case of `OC[C@@H](C[C@H]1N[C@H](CO)[C@@H](O)[C@@H]1O)OC[C@H](O)C[C@H]1N[C@H](CO)[C@@H](O)[C@@H]1O` [Compound 3], the IC50 with GALNS was 0.3 µM.
One may read the inhibition as the share of the control response that was lost under treatment. Read a high inhibition as a response far below the control. Regarding `C#CCOCC(COCC#C)(COCC#C)NC(=O)c1cc(C(=O)NC(COCC#C)(COCC#C)COCC#C)cc(C(=O)NC(COCC#C)(COCC#C)COCC#C)c1` [Compound 12], in data set [2] (setting [5]), the inhibition at 1000 µM turned out to be 25%.
Turning to `NC(COCc1cn(CCCCCCN2C[C@@H](O)[C@H](O)[C@H]2CO)nn1)(COCc1cn(CCCCCCN2C[C@@H](O)[C@H](O)[C@H]2CO)nn1)COCc1cn(CCCCCCN2C[C@@H](O)[C@H](O)[C@H]2CO)nn1` [Compound 26], in data set [2] (setting [5]), the inhibition at 1000 µM is less than 75%.
In turn, `OC[C@@H]1[C@@H](O)[C@H](O)CN1CCCCCCn1cc(COCC(COCc2cn(CCCCCCN3C[C@@H](O)[C@H](O)[C@H]3CO)nn2)OCc2cn(CCCCCCN3C[C@@H](O)[C@H](O)[C@H]3CO)nn2)nn1` [Compound 28] came in with an inhibition at 1000 µM in data set [2] (setting [5]) of less than 75%.
In the case of `OC[C@@H]1[C@@H](O)[C@H](O)CN1CCCCCCn1cc(COCC(COCc2cn(CCCCCCN3C[C@@H](O)[C@H](O)[C@H]3CO)nn2)(COCc2cn(CCCCCCN3C[C@@H](O)[C@H](O)[C@H]3CO)nn2)COCc2cn(CCCCCCN3C[C@@H](O)[C@H](O)[C@H]3CO)nn2)nn1` [Compound 30], 1000 µM produced 35% inhibition in data set [2] (setting [5]).
The same measure, in the same setting: under `OCC1C(O)C(O)CN1CCCCCCn1cc(COCC(COCc2cn(CCCCCCN3CC(O)C(O)C3CO)nn2)(COCc2cn(CCCCCCN3CC(O)C(O)C3CO)nn2)COCc2cn(CCCCCCN3CC(O)C(O)C3CO)nn2)nn1` (centres unmarked) [Compound 31] stands 73%.
For `O=C(CCCCC(=O)NC(COCc1cn(CCCCCCN2CC(O)C(O)C2CO)nn1)(COCc1cn(CCCCCCN2CC(O)C(O)C2CO)nn1)COCc1cn(CCCCCCN2CC(O)C(O)C2CO)nn1)NC(COCc1cn(CCCCCCN2CC(O)C(O)C2CO)nn1)(COCc1cn(CCCCCCN2CC(O)C(O)C2CO)nn1)COCc1cn(CCCCCCN2CC(O)C(O)C2CO)nn1` (centres unmarked) [Compound 33], the “rp/n (multivalent effect)” value in data set [2] (setting [4]) is on record as 2.4.
Consider `O=C(NC(COCc1cn(CCCCCCN2CCCC2)nn1)(COCc1cn(CCCCCCN2CCCC2)nn1)COCc1cn(CCCCCCN2CCCC2)nn1)c1cc(C(=O)NC(COCc2cn(CCCCCCN3CCCC3)nn2)(COCc2cn(CCCCCCN3CCCC3)nn2)COCc2cn(CCCCCCN3CCCC3)nn2)cc(C(=O)NC(COCc2cn(CCCCCCN3CCCC3)nn2)(COCc2cn(CCCCCCN3CCCC3)nn2)COCc2cn(CCCCCCN3CCCC3)nn2)c1` [Compound 38], for which, in data set [2] (human leukocyte extracts), the concentration for half-maximal inhibition (IC50) was 0.07 ± 0.015 mM.
Molecule `CC(=O)OCC1OC(OCCCCCCn2cc(CO)nn2)C(OC(C)=O)C(OC(C)=O)C1OC(C)=O` (centres unmarked) [Compound 48] came in with an IC50 in data set [2] (human leukocyte extracts, cell prints mM under a µM head) of more than 1 mM. Testing at 1000 µM in data set [2] (setting [5]) gave an inhibition of 16%.
`O=C(NC(COCc1cn(CCN2C[C@@H](O)[C@H](O)[C@H]2CO)nn1)(COCc1cn(CCN2C[C@@H](O)[C@H](O)[C@H]2CO)nn1)COCc1cn(CCN2C[C@@H](O)[C@H](O)[C@H]2CO)nn1)c1ccc([N+](=O)[O-])cc1` [Compound 51]: the inhibition at 1000 µM in data set [2] (setting [5]) worked out at 49%.
For the molecule `OCC1C(O)C(O)C2CC(n3cc(COCC(COCc4cn(C5CC6C(O)C(O)C(CO)N6C5)nn4)(COCc4cn(C5CC6C(O)C(O)C(CO)N6C5)nn4)COCc4cn(C5CC6C(O)C(O)C(CO)N6C5)nn4)nn3)CN12` (centres unmarked) [Compound 54], in data set [2] (setting [5]), the inhibition at 1000 µM came out at 9%.
For `CCCCCCCCN1C[C@@H](O)C(O)[C@H](O)C1` [Compound 55], the “% Inhibition (1 mM)” value in data set [2] (1 mM inhibitor, human leukocyte extracts, pH 4.3, 37 °C, 17 h) is on record as 33%.
On to `CC(C)C[C@H]1C(=O)N2CCC[C@H]2[C@]2(O)O[C@](NC(=O)[C@@H]3C=C4c5cccc6[nH]c(Br)c(c56)C[C@H]4N(C)C3)(C(C)C)C(=O)N12` [bromocriptine], for which, in the data set on rhGALNS, the “effect on activity and thermostability of rhGALNS” value (from here on “effect … of rhGALNS”) is “increase the activity and thermostability of rhGALNS”.
Regarding `O=C1[C@H](CC[C@H](O)c2ccc(F)cc2)[C@@H](c2ccc(O)cc2)N1c1ccc(F)cc1` [ezetimibe], the “effect … of rhGALNS” value in the data set with rhGALNS was “increase the activity and thermostability of rhGALNS”.
In the case of `O=C(Nc1cccc2c(=O)cc(-c3nnn[nH]3)oc12)c1ccc(OCCCCc2ccccc2)cc1` [pranlukast], the “effect … of rhGALNS” value in the data set on rhGALNS was “increase the activity and thermostability of rhGALNS”.
